Data taken from publication PMC3783636 (ACS chemical biology, 2013).

B1: HD5ox: oxidized form of HD5 with three disulfide bonds (peptide, UniProt Q01523 20-94, looked up)
Defensin alpha 5: ESLQERADEATTQKQSGEDNQDLAISFAGNGLSALRTSGSQARATCYCRTGRCATRESLSGVCEISGRLYRLCCR
modifications: Defensin-5 oxidized, three disulfides
B2: HD5: 32-residue cysteine-rich host-defense peptide; the redox couple HD5ox/HD5red (peptide, UniProt Q01523 20-94, looked up)
Defensin alpha 5: ESLQERADEATTQKQSGEDNQDLAISFAGNGLSALRTSGSQARATCYCRTGRCATRESLSGVCEISGRLYRLCCR
modifications: Defensin-5

Tests used:
[1] = known Zn(II) affinity; ref Supporting Information; cited from earlier work
[2] = system: trypsin; details: oxidized, triple-stranded β-sheet fold; cited from earlier work
[3] = Midpoint potential determination in DTT redox buffers; details: pH 7.0, 75 mM HEPES, DTTred/DTTox redox buffers −230 to −290 mV, 25 µM HD5red or HD5ox, anaerobic, 20 h, rt (ca. 22 °C), HPLC peak areas, global fit

Row | Molecule | Kd for Zn(II) of the sensor (range in words) [1] | also measured
1 | O=C(O)c1ccccc1NN=C(N=Nc1cc(S(=O)(=O)O)ccc1O)c1ccccc1 [Zincon] | micromolar | –
2 | Zinpyr-4 [ZP4] | mid-picomolar | –
3 | FluoZin-1 [FZ1] | micromolar | –
4 | B1 | – | stability to trypsin [2]: resistant to degradation
5 | B2 | – | midpoint potential [3]: −257 mV
